Laboratory results from ChEMBL document CHEMBL1201862, “PubChem BioAssay data set” (2004).
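Briefly, cells in 96-well plates were exposed to five compound concentrations for 48 h, and endpoints were estimated by linear interpolation. At the GI50, growth is halved.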 Active and inactive are the calls of the source. No stated cut-off is given here; in the data, active = GI50 up to about 1.1 µM and inactive = higher.

How the values were obtained:
Assay in all cases: NCI tumour cell line growth inhibition, 48 h
HCC 2998 = system: HCC 2998
XF498 = system: XF498
SF-295 = system: SF-295
M14 = system: M14
UO-31 = system: UO-31
OVCAR-8 = system: OVCAR-8
HL-60 = system: HL-60
OVCAR-5 = system: OVCAR-5
IGROV-1 = system: IGROV-1
SW-620 = system: SW-620
NCI-H23 = system: NCI-H23
HCT-15 = system: HCT-15
MOLT-4 = system: MOLT-4
EKVX = system: EKVX
SF-539 = system: SF-539
NCI-H460 = system: NCI-H460
TK-10 = system: TK-10
SK-MEL-5 = system: SK-MEL-5
A498 = system: A498
NCI-H226 = system: NCI-H226
786-0 = system: 786-0
SNB-19 = system: SNB-19
SK-OV-3 = system: SK-OV-3
DLD-1 = system: DLD-1
COLO 205 = system: COLO 205
HOP-18 = system: HOP-18
Malme-3M = system: Malme-3M
KM12 = system: KM12
U-251 = system: U-251
UACC-62 = system: UACC-62
LXFL 529 = system: LXFL 529
DMS-273 = system: DMS-273
M19-MEL = system: M19-MEL
SN12C = system: SN12C
SNB-78 = system: SNB-78
HCT-116 = system: HCT-116
NCI-H522 = system: NCI-H522
A549 = system: A549
K562 = system: K562
ACHN = system: ACHN
CAKI-1 = system: CAKI-1
HT-29 = system: HT-29
SK-MEL-2 = system: SK-MEL-2
UACC-257 = system: UACC-257
SK-MEL-28 = system: SK-MEL-28
LOX IMVI = system: LOX IMVI
SNB-75 = system: SNB-75
RXF 393 = system: RXF 393
HOP-62 = system: HOP-62
OVCAR-4 = system: OVCAR-4
RXF 631 = system: RXF 631
SF-268 = system: SF-268
KM-20L2 = system: KM-20L2
OVCAR-3 = system: OVCAR-3
CCRF-CEM = system: CCRF-CEM
SR = system: SR
RPMI-8226 = system: RPMI-8226
DMS-114 = system: DMS-114
HOP-92 = system: HOP-92

O=C(/C=C/c1ccccc1O)c1cccs1
GI50 (HCC 2998): > 100 µM (inactive)
GI50 (XF498): > 100 µM (inactive)
GI50 (SF-295): > 100 µM (inactive)
GI50 (M14): > 100 µM (inactive)
GI50 (UO-31): > 100 µM (inactive)
GI50 (OVCAR-8): > 100 µM (inactive)
GI50 (HL-60): > 100 µM (inactive)
GI50 (OVCAR-5): > 100 µM (inactive)
GI50 (IGROV-1): > 100 µM (inactive)
GI50 (SW-620): > 100 µM (inactive)
GI50 (NCI-H23): > 100 µM (inactive)
GI50 (HCT-15): > 100 µM
GI50 (MOLT-4): > 100 µM (inactive)
GI50 (EKVX): > 100 µM (inactive)
GI50 (SF-539): > 100 µM (inactive)
GI50 (NCI-H460): > 100 µM (inactive)
GI50 (TK-10): > 100 µM (inactive)
GI50 (SK-MEL-5): > 100 µM (inactive)
GI50 (A498): 11.9 µM (inactive)
GI50 (NCI-H226): > 100 µM (inactive)
GI50 (786-0): > 100 µM (inactive)
GI50 (SNB-19): > 100 µM (inactive)
GI50 (SK-OV-3): > 100 µM (inactive)
GI50 (DLD-1): > 100 µM (inactive)
GI50 (COLO 205): > 100 µM (inactive)
GI50 (HOP-18): 57.7 µM (inactive)
GI50 (Malme-3M): > 100 µM (inactive)
GI50 (KM12): > 100 µM (inactive)
GI50 (U-251): > 100 µM (inactive)
GI50 (UACC-62): > 100 µM (inactive)
GI50 (LXFL 529): > 100 µM (inactive)
GI50 (DMS-273): > 100 µM (inactive)
GI50 (M19-MEL): > 100 µM (inactive)
GI50 (SN12C): > 100 µM (inactive)
GI50 (SNB-78): > 100 µM (inactive)
GI50 (HCT-116): > 100 µM (inactive)
GI50 (NCI-H522): > 100 µM (inactive)
GI50 (A549): > 100 µM (inactive)
GI50 (K562): > 100 µM (inactive)
GI50 (ACHN): > 100 µM (inactive)
GI50 (CAKI-1): > 100 µM (inactive)
GI50 (HT-29): > 100 µM (inactive)
GI50 (SK-MEL-2): > 100 µM (inactive)
GI50 (UACC-257): > 100 µM (inactive)
GI50 (SK-MEL-28): > 100 µM (inactive)
GI50 (LOX IMVI): > 100 µM (inactive)
GI50 (SNB-75): > 100 µM (inactive)
GI50 (RXF 393): > 100 µM (inactive)
GI50 (HOP-62): > 100 µM (inactive)
GI50 (OVCAR-4): > 100 µM (inactive)
GI50 (RXF 631): > 100 µM (inactive)
GI50 (SF-268): > 100 µM (inactive)
GI50 (KM-20L2): > 100 µM (inactive)
GI50 (OVCAR-3): > 100 µM (inactive)
GI50 (CCRF-CEM): > 100 µM (inactive)
GI50 (SR): > 100 µM (inactive)

N=c1oc2cc(O)c(O)cc2cc1C(N)=O
GI50 (HCC 2998): > 100 µM (inactive)
GI50 (XF498): > 100 µM (inactive)
GI50 (SF-295): > 100 µM (inactive)
GI50 (M14): > 100 µM (inactive)
GI50 (UO-31): > 100 µM (inactive)
GI50 (OVCAR-8): > 100 µM (inactive)
GI50 (HL-60): > 10 µM (inactive)
GI50 (OVCAR-5): > 100 µM (inactive)
GI50 (IGROV-1): > 100 µM (inactive)
GI50 (SW-620): > 100 µM (inactive)
GI50 (NCI-H23): > 100 µM (inactive)
GI50 (HCT-15): > 100 µM
GI50 (MOLT-4): 84.9 µM (inactive)
GI50 (RPMI-8226): > 100 µM (inactive)
GI50 (EKVX): > 100 µM (inactive)
GI50 (SF-539): > 100 µM (inactive)
GI50 (NCI-H460): > 100 µM (inactive)
GI50 (TK-10): > 100 µM (inactive)
GI50 (SK-MEL-5): > 100 µM (inactive)
GI50 (A498): > 100 µM (inactive)
GI50 (NCI-H226): > 100 µM (inactive)
GI50 (786-0): 43.5 µM (inactive)
GI50 (SNB-19): > 100 µM (inactive)
GI50 (SK-OV-3): > 100 µM (inactive)
GI50 (DLD-1): > 100 µM (inactive)
GI50 (COLO 205): > 100 µM (inactive)
GI50 (Malme-3M): > 100 µM (inactive)
GI50 (KM12): > 100 µM (inactive)
GI50 (U-251): > 100 µM (inactive)
GI50 (UACC-62): > 100 µM (inactive)
GI50 (LXFL 529): > 100 µM (inactive)
GI50 (DMS-273): > 100 µM (inactive)
GI50 (M19-MEL): > 100 µM (inactive)
GI50 (SN12C): > 100 µM (inactive)
GI50 (SNB-78): > 100 µM (inactive)
GI50 (HCT-116): > 100 µM (inactive)
GI50 (NCI-H522): 45.1 µM (inactive)
GI50 (A549): > 100 µM (inactive)
GI50 (DMS-114): > 100 µM (inactive)
GI50 (K562): > 100 µM (inactive)
GI50 (ACHN): > 100 µM (inactive)
GI50 (CAKI-1): > 100 µM (inactive)
GI50 (HT-29): > 100 µM (inactive)
GI50 (SK-MEL-2): > 100 µM (inactive)
GI50 (UACC-257): > 100 µM (inactive)
GI50 (SK-MEL-28): > 100 µM (inactive)
GI50 (LOX IMVI): > 100 µM (inactive)
GI50 (HOP-92): > 100 µM (inactive)
GI50 (SNB-75): 25 µM (inactive)
GI50 (RXF 393): > 100 µM (inactive)
GI50 (HOP-62): > 100 µM (inactive)
GI50 (OVCAR-4): > 100 µM (inactive)
GI50 (RXF 631): > 100 µM (inactive)
GI50 (SF-268): 81.3 µM (inactive)
GI50 (KM-20L2): > 100 µM (inactive)
GI50 (OVCAR-3): > 100 µM (inactive)
GI50 (CCRF-CEM): 33 µM (inactive)
